In patent US20080076718A1, “Novel Proteasome Modulators” (priority 2003, published 2008):
Read-outs that look alike come from different tables or passages of the source. Square brackets hold non-standard residues; d marks the D form. Ends that are not written are not given here. Peptide text beside a SMILES is read from it. * marks the point of attachment. Biotin = O=C1N[C@H]2[C@H](CS[C@H]2CCCCC(=O)*)N1; Bpa = N[C@@H](Cc1ccc(C(=O)c2ccccc2)cc1)C(=O)O; Decanoyl = CCCCCCCCCC(=O)*; Octanoyl = CCCCCCCC(=O)*; Ava = NCCCCC(=O)O

Experiments:
Assay type in all cases: biochemical, yeast (Saccharomyces cerevisae)
[1] = target: T1, yeast activated 20S proteasome (CT-L activity) (Saccharomyces cerevisiae, UniProt P23724+P30656); assay: Inhibition of the CT-L (chymotrypsin-like) peptidase activity of the activated 20S proteasome, substrate Suc-LLVY-amc; conditions: for Increase of the inhibitory capacity compared with the unmodified peptide (factor): lipopeptide versus corresponding peptide, CT-L activity of activated 20S proteasome; for Inhibitory effect of the lipopeptides on the CT-L activity: yeast activated 20S proteasome, after treatment with 35 μM of lipopeptide (17.5 μM for C18/TVTYKF)
T1 construct: The yeast (Saccharomyces cerevisae) 26S and 20S proteasomes were purified according to the protocol described in; made in house; host or cells: Saccharomyces cerevisiae (native complex purified from yeast by the cited Leggett et al. 2002 protocol)
Protocol: (§1) The yeast (Saccharomyces cerevisae) 26S and 20S proteasomes were purified according to the protocol described in: LEGGETT et al. (2002) Molecular Cell, 10, pp 495-507.
(§2) The peptidase activities were determined using the fluorogenic substrates Suc-LLVY-amc (CT-L), Z-LLE-βNA (PA) and Boc-LRR-amc (T-L), provided by the company Bachem (Voisins-le-Bretonneux, France).
(§3) The peptidase activities of the yeast and Xenopus 26S proteasomes and those of the yeast 20S proteasome, latent and activated, were determined under the conditions described in Table II.
(§4) The compounds studied are solubilized in the buffer (peptides, pseudopeptides) or in DMSO (lipopeptides, photoactivatable peptides). The enzyme is preincubated (15 min at 30° C.) in the corresponding buffer (Table II), in the presence of the inhibitor. For the cases where the inhibitor is solubilized in DMSO (lipopeptides, photoactivatable peptides), the control without inhibitor contains an amount of DMSO identical to that of the assays with inhibitor (3.5% v/v). The reaction is triggered by adding the substrate. It is continuously monitored for 30 min at 30° C. The initial rates of the assays with inhibitors (calculated from the experimental points) are compared with those of the controls. The results presented were obtained by calculating the mean of at least two independent assays. The variability is less than 10%.
(§5) The IC50 parameter corresponds to the concentration of inhibitor that results in a 50% loss of enzymatic activity.
(§6) The enzyme is preincubated in the presence of increasing concentrations of inhibitor. The reaction is triggered by adding the substrate (see paragraph “Detection and study of the inhibitory effects”). The percentage inhibition is calculated from equation 1.
(§7) The experimental points describe the evolution of the inhibitory effect of the compound studied as a function of its concentration. As a general rule, they fit with the curve described by equation 2 in which [I] is the concentration of inhibitor
The mechanism of inhibition is determined by tracing the curve of the evolution of the V0/Vi ratio as a function of the concentration of inhibitor.

[2] = target: T2, activated 20S proteasome (PA activity) (Saccharomyces cerevisiae, UniProt P25043+P38624); assay: Inhibition of the post-acid (PA) peptidase activity of the activated 20S proteasome, substrate Z-LLE-βNA
T2 construct: The yeast (Saccharomyces cerevisae) 26S and 20S proteasomes were purified according to the protocol described in; made in house; host or cells: Saccharomyces cerevisiae (native complex purified from yeast by the cited Leggett et al. 2002 protocol)
Protocol: as §1, §2, §3, §4, §5, §6, §7

[3] = target: T3, latent 20S proteasome (CT-L activity) (Saccharomyces cerevisiae, UniProt P23724+P30656); assay: Activating effect on the CT-L activity of the latent 20S proteasome (activation factor fa); design: key: fa = initial rate with compound / initial rate of control (Va/V0); conditions: fa = Va/V0, concentration not given
T3 construct: The yeast (Saccharomyces cerevisae) 26S and 20S proteasomes were purified according to the protocol described in; made in house; host or cells: Saccharomyces cerevisiae (native complex purified from yeast by the cited Leggett et al. 2002 protocol)
Protocol: as §1, §2, §3
(§8) The compounds studied are solubilized in the buffer or in DMSO. The enzyme is preincubated (15 minutes at 30° C.) in the corresponding buffer (Table II), in the presence of the molecule to be tested. When the molecule is solubilized in DMSO, the control (no addition molecule to be tested) contains an amount of DMSO identical to that of the assays(3.5% v/v). The reaction is triggered by adding the substrate. It is continuously monitored for 30 minutes at 30° C. The results presented were obtained by calculating the mean of at least two independent assays. An activation is characterized by an activity, after treatment with the molecule tested, of greater than 100%. The variability is less than 10%. The results are expressed by means of an activation factor fa equal to the ratio of the initial rate Va in the presence of the compound tested to the initial rate of the control V0.

[4] = target: T4, latent 20S proteasome (T-L activity) (Saccharomyces cerevisiae, UniProt P25043+P25451); assay: Activating effect on the T-L activity of the latent 20S proteasome (activation factor fa); conditions: fa = Va/V0, concentration not given
T4 construct: The yeast (Saccharomyces cerevisae) 26S and 20S proteasomes were purified according to the protocol described in; made in house; host or cells: Saccharomyces cerevisiae (native complex purified from yeast by the cited Leggett et al. 2002 protocol)
Protocol: as §1, §2, §3, §8

[5] = activated 20S proteasome, read-out: CT-L activity: IC50

## CCCCCCCC(=O)N[C@H](C(=O)N[C@H](C(=O)N[C@H](C(=O)N[C@@H](Cc1ccc(O)cc1)C(=O)N[C@@H](CCCCN)C(=O)N[C@@H](Cc1ccccc1)C(=O)O)[C@@H](C)O)C(C)C)[C@@H](C)O [C8/TVTYKF, CH3—(CH2)6—CO-TVTYKF] (Octanoyl-TVTYKF-OH; C-terminus assumed)
[1]; [5]
  IC50: ~35 µM
[1]
  Increase of the inhibitory capacity compared with the unmodified peptide (factor): 17
  Inhibitory effect of the lipopeptides on the CT-L activity: 50%

## CC(C)C[C@@H](CNCC(=O)N1CCC[C@H]1C(=O)N[C@@H](CO)C(=O)O)NC(=O)[C@H](CC(N)=O)NC(=O)[C@@H](N)[C@@H](C)O [Pseudopeptide 1, TNL-ψ[CH2—NH]-GPS]
[1]; activated 20S proteasome
  Mechanism of inhibition (kinetic analysis, V0/Vi versus inhibitor concentration): reacts with the catalytic sites and the regulatory site(s)
[1]; estimated values, activity type not named at the place, peptide tested under conditions where its hydrolysis is negligible, read-out: IC50 (activated 20S proteasome inhibitor)
  IC50: 380 µM
[2]; inhibitor 500 μM
  inhibition at 500 µM: 63%

## TITYKF [TITYKF, reference compound]
[1]; activated 20S proteasome
  Mechanism of inhibition (kinetic analysis, V0/Vi versus inhibitor concentration): parabolic kinetics
[1]; [5]
  IC50: 260 µM
[2]
  IC50: 336 µM

## CH3—(CH2)14—CO-TITFDY [C16/TITFDY]
[1]
  Inhibitory effect of the lipopeptides on the CT-L activity: 20%
[3]
  fa CT-L activity: 3

## CC(C)[C@H](NC(=O)[C@@H](NC(=O)CCCCNC(=O)CCCC[C@@H]1SC[C@@H]2NC(=O)N[C@@H]21)[C@@H](C)O)C(=O)N[C@H](C(=O)N[C@@H](Cc1ccc(C(=O)c2ccccc2)cc1)C(=O)N[C@@H](CCCCN)C(=O)N[C@@H](Cc1ccccc1)C(=O)O)[C@@H](C)O [Pseudopeptide 3, Biot-Ava-TVT-Bpa-KF] ({Biotin-Ava}-TVT[Bpa]KF-OH; C-terminus assumed)
[1]; enzyme form and activity not stated at the place, read-out: IC50
  IC50: 32 µM

## CH3—(CH2)14—CO-TVTYKF
[3]
  fa CT-L activity: 2

## TVTFKF [TVTFKF, reference compound]
[1]; activated 20S proteasome
  Mechanism of inhibition (kinetic analysis, V0/Vi versus inhibitor concentration): parabolic kinetics
[1]; [5]
  IC50: 229 µM
[2]
  IC50: 210 µM
[3]
  fa CT-L activity: 2.3
[4]
  fa T-L activity: 1.7

## TITYEY [reference compound]
[3]
  fa CT-L activity: 2

## CH3—(CH2)16—CO-TITFDY [C18/TITFDY]
[1]
  Inhibitory effect of the lipopeptides on the CT-L activity: 34%
[3]
  fa CT-L activity: 6
[4]
  fa T-L activity: 1.2

## Ac-TNL-ψ[CH2—NH]-GPS [Pseudopeptide 2]
[1]; activated 20S proteasome
  Effectiveness relative to pseudopeptide 1: half as effective as 1
[2]; inhibitor 1 mM
  Inhibition of the post-acid activity PA: 28%

## CCCCCCCCCC(=O)N[C@H](C(=O)N[C@H](C(=O)N[C@H](C(=O)N[C@@H](Cc1ccccc1)C(=O)N[C@@H](CCCCN)C(=O)N[C@@H](Cc1ccccc1)C(=O)O)[C@@H](C)O)C(C)C)[C@@H](C)O [C10/TVTFKF, CH3—(CH2)8—CO-TVTFKF] (Decanoyl-TVTFKF-OH; C-terminus assumed)
[1]; [5]
  IC50: ~35 µM
[1]
  Increase of the inhibitory capacity compared with the unmodified peptide (factor): 6.5
  Inhibitory effect of the lipopeptides on the CT-L activity: 42%

## TITYDF
[4]
  fa T-L activity: 2.5

## CH3—(CH2)16—CO-TVTYKF
[3]
  fa CT-L activity: 3.2

## TITFDY [reference compound]
[3]
  fa CT-L activity: 5
[4]
  fa T-L activity: 3

## CH3—(CH2)12—CO-TVTYKF [C14/TVTYKF]
[1]
  Inhibitory effect of the lipopeptides on the CT-L activity: 0%
[3]
  fa CT-L activity: 2
